Among the data in PMC5540273, “Progress towards a public chemogenomic set for protein kinases and a call for contributions” (PLoS ONE, 2017) are inhibition values, retold here.

SMILES strings stand for the structures.

Holding throughout (assay): KINOMEscan competition binding
For assay [1], the target named is CDK7 (Homo sapiens, UniProt P50613). Conditions: read-out: %Inh CDK7.
Assay [2] concerns the target T1, CHEK1 (Homo sapiens, UniProt O14757).
T1 sequence (O14757 1-476): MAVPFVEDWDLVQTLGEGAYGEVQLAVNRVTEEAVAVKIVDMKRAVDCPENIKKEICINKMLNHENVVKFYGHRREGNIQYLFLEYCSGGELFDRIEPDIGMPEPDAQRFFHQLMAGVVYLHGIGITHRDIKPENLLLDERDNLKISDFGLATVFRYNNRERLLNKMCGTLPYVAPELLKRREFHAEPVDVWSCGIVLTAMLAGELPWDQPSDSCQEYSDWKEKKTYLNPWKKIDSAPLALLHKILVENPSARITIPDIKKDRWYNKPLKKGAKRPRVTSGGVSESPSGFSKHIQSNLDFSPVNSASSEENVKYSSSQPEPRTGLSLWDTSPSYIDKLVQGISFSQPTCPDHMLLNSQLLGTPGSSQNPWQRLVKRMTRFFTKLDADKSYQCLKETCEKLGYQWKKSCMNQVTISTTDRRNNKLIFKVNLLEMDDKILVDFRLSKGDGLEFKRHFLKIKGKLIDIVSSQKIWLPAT
Conditions: read-out: %Inh CHEK1.

In assay [3] the target is DAPK1 (Homo sapiens, UniProt P53355). The note with it: read-out: %Inh DAPK1.
DAPK1, sequence (P53355 whole entry): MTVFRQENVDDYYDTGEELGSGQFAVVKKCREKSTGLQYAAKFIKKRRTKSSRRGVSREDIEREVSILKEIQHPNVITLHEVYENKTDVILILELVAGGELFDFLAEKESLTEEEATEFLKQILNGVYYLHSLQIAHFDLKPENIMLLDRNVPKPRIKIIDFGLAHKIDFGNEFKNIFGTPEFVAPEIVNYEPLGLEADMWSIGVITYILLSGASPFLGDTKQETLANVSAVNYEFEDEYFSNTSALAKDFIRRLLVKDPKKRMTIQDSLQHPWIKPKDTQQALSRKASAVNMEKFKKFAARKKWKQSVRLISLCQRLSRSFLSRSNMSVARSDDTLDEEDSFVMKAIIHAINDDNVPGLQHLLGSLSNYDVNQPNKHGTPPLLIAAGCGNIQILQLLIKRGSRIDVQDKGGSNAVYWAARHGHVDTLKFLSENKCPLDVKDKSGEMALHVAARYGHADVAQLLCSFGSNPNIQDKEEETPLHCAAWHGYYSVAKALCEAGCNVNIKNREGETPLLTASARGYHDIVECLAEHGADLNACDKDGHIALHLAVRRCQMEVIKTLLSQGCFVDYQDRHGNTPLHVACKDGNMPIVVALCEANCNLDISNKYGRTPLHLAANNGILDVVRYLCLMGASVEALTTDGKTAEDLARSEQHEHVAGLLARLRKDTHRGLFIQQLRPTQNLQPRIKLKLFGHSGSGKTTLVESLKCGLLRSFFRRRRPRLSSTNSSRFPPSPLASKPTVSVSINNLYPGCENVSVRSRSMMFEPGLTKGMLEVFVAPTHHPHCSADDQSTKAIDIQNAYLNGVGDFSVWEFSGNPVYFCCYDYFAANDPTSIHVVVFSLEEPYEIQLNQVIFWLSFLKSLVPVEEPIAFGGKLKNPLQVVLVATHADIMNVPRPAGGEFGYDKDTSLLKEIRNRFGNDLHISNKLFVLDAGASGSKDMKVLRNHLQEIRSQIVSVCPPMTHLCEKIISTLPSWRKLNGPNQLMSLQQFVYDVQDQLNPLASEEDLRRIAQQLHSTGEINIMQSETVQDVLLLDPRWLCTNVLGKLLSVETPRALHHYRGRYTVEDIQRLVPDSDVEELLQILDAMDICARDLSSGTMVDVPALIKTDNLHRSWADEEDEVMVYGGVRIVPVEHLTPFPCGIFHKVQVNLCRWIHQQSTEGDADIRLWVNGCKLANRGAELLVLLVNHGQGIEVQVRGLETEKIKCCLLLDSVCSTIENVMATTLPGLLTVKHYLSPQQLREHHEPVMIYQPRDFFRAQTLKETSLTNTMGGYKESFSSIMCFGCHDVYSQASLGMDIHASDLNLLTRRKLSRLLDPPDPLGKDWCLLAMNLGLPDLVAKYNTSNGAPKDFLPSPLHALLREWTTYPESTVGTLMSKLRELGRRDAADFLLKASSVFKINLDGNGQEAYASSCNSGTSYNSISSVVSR
The target of assay [4] is T2, DRAK2 (Homo sapiens, UniProt O94768).
T2 sequence (O94768 1-372): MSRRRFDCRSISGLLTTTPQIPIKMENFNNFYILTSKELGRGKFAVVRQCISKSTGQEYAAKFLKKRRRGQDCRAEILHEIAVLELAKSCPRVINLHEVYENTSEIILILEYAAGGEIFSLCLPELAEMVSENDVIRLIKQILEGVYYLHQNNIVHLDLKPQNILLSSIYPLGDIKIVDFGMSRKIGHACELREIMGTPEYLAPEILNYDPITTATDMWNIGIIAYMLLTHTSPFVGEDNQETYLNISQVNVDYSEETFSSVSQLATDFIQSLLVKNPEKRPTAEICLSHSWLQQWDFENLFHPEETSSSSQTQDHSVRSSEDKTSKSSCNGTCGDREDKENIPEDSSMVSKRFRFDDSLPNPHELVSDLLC
The note with it: read-out: %Inh DRAK2.

The target in assay [5] is ERBB4 (Homo sapiens, UniProt Q15303). The note with it: read-out: %Inh ERBB4.
ERBB4, sequence (Q15303 26-1308): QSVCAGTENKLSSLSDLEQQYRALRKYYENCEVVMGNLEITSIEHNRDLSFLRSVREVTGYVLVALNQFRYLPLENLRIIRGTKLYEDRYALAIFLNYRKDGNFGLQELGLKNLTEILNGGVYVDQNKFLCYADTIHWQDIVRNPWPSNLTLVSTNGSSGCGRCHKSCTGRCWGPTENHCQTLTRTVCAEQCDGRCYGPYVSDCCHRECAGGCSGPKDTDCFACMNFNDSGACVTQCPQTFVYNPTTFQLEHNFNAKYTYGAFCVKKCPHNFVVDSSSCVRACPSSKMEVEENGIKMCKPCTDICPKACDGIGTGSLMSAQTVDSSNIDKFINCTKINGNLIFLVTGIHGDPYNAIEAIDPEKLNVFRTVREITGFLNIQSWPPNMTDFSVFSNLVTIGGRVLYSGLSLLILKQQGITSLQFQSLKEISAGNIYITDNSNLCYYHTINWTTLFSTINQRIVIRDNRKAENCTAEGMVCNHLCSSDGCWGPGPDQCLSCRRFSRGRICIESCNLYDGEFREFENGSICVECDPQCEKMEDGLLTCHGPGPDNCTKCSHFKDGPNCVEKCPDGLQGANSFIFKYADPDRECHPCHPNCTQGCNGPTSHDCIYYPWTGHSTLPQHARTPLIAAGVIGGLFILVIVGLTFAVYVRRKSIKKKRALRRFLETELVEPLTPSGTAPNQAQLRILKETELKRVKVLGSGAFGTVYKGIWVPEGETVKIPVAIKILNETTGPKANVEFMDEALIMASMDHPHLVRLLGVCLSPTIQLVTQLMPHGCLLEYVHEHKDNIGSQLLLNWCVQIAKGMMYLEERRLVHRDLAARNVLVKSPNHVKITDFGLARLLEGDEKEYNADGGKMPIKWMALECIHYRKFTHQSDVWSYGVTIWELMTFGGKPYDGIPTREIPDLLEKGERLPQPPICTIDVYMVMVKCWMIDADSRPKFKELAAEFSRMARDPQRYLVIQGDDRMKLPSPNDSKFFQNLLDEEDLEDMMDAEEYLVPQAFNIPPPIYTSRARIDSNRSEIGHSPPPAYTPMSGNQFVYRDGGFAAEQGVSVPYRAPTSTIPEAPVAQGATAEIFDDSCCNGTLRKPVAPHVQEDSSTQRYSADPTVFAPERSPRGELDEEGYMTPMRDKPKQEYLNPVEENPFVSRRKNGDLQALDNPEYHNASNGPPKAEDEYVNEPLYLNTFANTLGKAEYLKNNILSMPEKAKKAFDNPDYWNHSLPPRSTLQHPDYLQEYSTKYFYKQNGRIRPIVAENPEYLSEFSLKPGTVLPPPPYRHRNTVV
For assay [6], the target named is FES (Homo sapiens, UniProt P07332). The note with it: read-out: %Inh FES.
FES, sequence (P07332 whole entry): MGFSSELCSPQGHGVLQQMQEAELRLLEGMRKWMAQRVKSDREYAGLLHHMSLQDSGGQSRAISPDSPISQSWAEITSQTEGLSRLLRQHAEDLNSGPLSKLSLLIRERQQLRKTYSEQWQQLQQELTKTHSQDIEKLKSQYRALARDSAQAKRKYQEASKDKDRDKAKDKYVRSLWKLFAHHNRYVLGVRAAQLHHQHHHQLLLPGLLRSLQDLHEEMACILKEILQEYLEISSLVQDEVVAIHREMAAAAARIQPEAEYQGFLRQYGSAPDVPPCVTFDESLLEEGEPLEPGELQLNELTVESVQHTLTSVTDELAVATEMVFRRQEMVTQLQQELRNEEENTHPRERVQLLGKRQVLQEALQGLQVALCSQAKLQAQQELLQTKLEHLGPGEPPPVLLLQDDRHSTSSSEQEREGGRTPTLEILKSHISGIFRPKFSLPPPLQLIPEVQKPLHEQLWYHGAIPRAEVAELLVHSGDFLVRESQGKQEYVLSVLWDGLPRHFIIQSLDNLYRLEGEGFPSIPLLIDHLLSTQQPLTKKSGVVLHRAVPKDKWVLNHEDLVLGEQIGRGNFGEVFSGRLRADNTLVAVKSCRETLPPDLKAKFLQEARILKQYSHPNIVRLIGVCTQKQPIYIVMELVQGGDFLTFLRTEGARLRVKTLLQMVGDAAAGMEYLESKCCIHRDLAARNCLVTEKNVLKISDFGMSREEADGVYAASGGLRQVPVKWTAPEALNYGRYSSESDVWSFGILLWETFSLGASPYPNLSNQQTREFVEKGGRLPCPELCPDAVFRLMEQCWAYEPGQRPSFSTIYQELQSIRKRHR
The target of assay [7] is T3, IKK-beta (Homo sapiens, UniProt O14920).
T3 sequence (O14920 1-756): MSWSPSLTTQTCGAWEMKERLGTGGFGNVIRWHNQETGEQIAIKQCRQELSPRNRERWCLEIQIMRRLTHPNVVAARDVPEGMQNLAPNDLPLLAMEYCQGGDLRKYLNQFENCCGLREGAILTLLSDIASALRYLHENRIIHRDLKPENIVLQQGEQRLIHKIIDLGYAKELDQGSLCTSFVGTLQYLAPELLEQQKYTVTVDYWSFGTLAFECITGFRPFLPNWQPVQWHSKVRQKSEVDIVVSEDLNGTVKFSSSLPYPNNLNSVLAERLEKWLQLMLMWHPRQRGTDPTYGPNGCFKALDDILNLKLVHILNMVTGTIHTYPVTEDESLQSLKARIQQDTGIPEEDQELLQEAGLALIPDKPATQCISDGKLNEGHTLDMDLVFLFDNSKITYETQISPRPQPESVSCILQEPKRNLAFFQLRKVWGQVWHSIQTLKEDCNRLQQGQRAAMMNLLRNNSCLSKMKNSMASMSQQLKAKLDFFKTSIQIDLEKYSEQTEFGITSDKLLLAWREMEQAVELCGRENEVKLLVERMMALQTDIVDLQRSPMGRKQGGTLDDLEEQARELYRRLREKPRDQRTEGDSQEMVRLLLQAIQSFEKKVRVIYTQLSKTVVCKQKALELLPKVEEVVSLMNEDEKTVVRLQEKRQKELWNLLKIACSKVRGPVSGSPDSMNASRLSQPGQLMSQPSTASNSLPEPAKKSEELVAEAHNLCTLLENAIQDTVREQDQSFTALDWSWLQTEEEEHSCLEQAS
Conditions: read-out: %Inh IKK-beta.

In assay [8] the target is T4, LZK (Homo sapiens, UniProt O43283).
T4 sequence (O43283 1-966): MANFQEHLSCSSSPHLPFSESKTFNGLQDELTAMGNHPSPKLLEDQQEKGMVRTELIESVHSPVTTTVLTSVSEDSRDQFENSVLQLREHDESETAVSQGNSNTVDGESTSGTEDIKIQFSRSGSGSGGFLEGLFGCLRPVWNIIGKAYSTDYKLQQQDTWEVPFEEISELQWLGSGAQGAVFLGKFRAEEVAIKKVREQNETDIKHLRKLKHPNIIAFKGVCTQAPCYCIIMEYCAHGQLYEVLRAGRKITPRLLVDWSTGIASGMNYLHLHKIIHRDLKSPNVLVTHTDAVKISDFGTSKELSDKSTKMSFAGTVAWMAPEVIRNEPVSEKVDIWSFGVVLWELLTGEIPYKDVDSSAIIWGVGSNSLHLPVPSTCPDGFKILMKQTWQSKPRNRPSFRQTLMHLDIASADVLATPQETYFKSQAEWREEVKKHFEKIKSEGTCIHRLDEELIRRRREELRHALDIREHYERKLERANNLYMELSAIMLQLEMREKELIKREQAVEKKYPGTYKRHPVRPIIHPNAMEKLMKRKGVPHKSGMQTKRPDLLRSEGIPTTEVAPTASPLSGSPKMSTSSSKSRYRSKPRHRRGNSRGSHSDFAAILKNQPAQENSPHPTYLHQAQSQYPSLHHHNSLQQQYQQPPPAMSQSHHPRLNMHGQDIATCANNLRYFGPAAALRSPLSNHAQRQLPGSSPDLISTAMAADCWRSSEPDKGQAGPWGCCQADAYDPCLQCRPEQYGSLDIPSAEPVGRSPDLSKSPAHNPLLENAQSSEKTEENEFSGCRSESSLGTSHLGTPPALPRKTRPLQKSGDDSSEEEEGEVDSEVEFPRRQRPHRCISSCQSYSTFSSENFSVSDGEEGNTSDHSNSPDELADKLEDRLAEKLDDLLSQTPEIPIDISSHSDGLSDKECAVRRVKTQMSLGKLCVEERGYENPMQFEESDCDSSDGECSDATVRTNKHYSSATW
The note with it: read-out: %Inh LZK.

CDK7, sequence (P50613 whole entry): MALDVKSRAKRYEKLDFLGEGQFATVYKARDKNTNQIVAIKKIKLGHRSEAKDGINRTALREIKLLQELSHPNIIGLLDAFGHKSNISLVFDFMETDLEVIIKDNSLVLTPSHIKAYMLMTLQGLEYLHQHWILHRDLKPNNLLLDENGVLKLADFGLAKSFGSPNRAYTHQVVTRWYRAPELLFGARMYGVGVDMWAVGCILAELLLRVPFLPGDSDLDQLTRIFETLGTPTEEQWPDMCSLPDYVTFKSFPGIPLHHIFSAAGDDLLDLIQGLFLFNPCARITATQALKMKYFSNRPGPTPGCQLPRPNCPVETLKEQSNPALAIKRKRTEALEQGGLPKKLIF

As for `O=c1cc(N2CCOCC2)nc2n(Cc3cccc(Cl)c3Cl)c(C3CC3)nn12` [UNC10225469A], the inhibition at 1 µM was determined as 5% in assay [1]; 15% in assay [2]; 26% in assay [3]; 9% in assay [4]; 0% in assay [5]; 15% in assay [6]. The inhibition at 1 µM in assay [7] and in assay [8] was 0% in each case.
As to `COc1cccc(OC)c1C(=O)Nc1cccc(-c2nn3ccccc3c2-c2ccnc(Nc3cccc(F)c3)n2)c1` [UNC10225310A], the inhibition at 1 µM was 22% in assay [1]; 13% in assay [2]; 10% in assay [3]; 12% in assay [4]; 84% in assay [5]; 20% in assay [6]. The inhibition at 1 µM is 0% in assay [7] and 8% in assay [8].
For the compound `CS(=O)(=O)Cc1ccc(Nc2nccc(-c3c(-c4cccc(NC(=O)C5CCCCC5)c4)nn4ncccc34)n2)cc1` [UNC10225159A], the inhibition at 1 µM came to 6% in assay [1]; 12% in assay [2]; 0% in assay [3]; 0% in assay [4]; 74% in assay [5]; 0% in assay [6]. Also, the inhibition at 1 µM in assay [7] worked out at 12%; in assay [8] it was 0%.
Turning to `Cc1ccc(NC(=O)Nc2cccc(C(F)(F)F)c2)cc1` [UNC10225187A], the inhibition at 1 µM in assay [1] was found to be 12%; in assay [2], 5%; in assay [3] it was 18%; in assay [4] it was 0%; in assay [5], 0%; in assay [6] it was 0%. Besides, the inhibition at 1 µM in assay [7] and in assay [8] was 0% each time.
Turning to `Cn1cc(-c2cnc(N)c3c(-c4ccc5c(c4)CCN5C(=O)Cc4ccccc4)csc23)cn1` [UNC10225012A], the inhibition at 1 µM was determined as 19% in assay [1]; 9% in assay [2]; 38% in assay [3]; 9% in assay [4]; 0% in assay [5]; 14% in assay [6]. Further, the inhibition at 1 µM in assay [7] and in assay [8] was 0% in each case.
